Experiment [1] concerns genotype A, "Long" strain RSV. Briefly: RSV-A assay: CPE protection in HEp-2 cells, ATPlite readout. The experiment is classed as cell-based, human respiratory syncytial virus. An outline of the steps: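 HEp-2 cells (8,000/well) with 2-fold compound dilutions in duplicate, infected with Long-strain RSV at MOI 0.1 and incubated 5 days. Cell ATP measured by ATPlite luminescence to give EC50; uninfected parallel plate gives CC50.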

For experiment [2], the system named is RSV genotype B, strain 9320. Nature of the experiment: RSV-B assay: A549 cells infected with RSV-B, qPCR or ATPlite readout. The experiment is classed as cell-based. The following applies: read-out: Human RSV-B EC50. The source says:
HEp-2 cells, (originally derived from tumors grown in irradiated-cortisonised weanling rats that had been injected with epidermoid carcinoma tissue from a person's larynx, but later found to be indistinguishable from HeLa cells by PCR DNA analysis), were used for the culturing of genotype B, strain 9320. Flasks were inoculated with RSV-B and viral stocks were collected once cytopathic effect (CPE) was greater than […]. Viral stocks in 25% sucrose media were snap frozen using liquid nitrogen to increase viral stability. Viral stock titers were quantified by tissue culture infectious dose 50% (TCID50) using 8,000 cells per well and 5-fold viral dilutions across a 96-well plate, cultured for 4 days. Viral stock titers were also quantified by a plaque forming unit assay, as described elsewhere.
The assay is run as follows: A549 cells (originally derived through explant culture from a person's carcinomatous lung tissue) are seeded into the inner 60 wells of a 96-well plate at 3,000 cells per well in a volume of 50 μL using A549 growth media (F-12K Media, 1% Penn/Strep, 1% nonessential amino acids, 10% heat-inactivated FBS). 2-fold serial dilutions of control and test compounds are added to the wells in duplicate in a total volume of 25 μL. Viral stock is then added to the wells at a multiplicity of infection (MOI) of 0.5 in a volume of 25 μL, bringing the total volume of each well to 100 μL. The MOI is calculated using the PFU/mL, or TCID50 if unavailable. Each 96-well plate has a control column of 6 wells with cells and virus but no compound (negative control, max CPE), a column with cells but no compound or virus (positive control, minimum CPE), and a column with no cells or virus or compound (background plate/reagent control). The control wells with cells but no virus are given an additional 25 μL of growth media containing an equal quantity of sucrose as those wells receiving the viral stock in order to keep consistent in media and volume conditions. The outer wells of the plate are filled with 125 μL of moat media (DMEM, 1% Penn/Strep) to act as a thermal and evaporative moat around the test wells. 6 days post infection, the plates are read using qPCR or ATP lite (50 μL added per well), which quantifies the amount of ATP (a measure of cell health) present in each well. Assay plates treated with APTlite are read using the Envision luminometer. […] EC50 ranges are as follows: A <0.4 μM; B 0.4-0.8 μM; C >0.8 μM.

The mark [3] stands for this setting: human respiratory syncytial virus, HEp-2, read-out: Human RSV-A (“Long” strain) EC50.
[4] abbreviates: human respiratory syncytial virus, A549, 144 h.

Where two headings read alike, the source gives them in different places.

For the compound `O=C1Nc2c(F)cccc2C(c2ccccc2)=N[C@@H]1Nc1nnc(-c2cccnc2N2CCOCC2)o1` (single isomer, unassigned) [Example 358], the EC50 in experiment [1] (HEp-2 cells, RSV-A Long strain, ATPlite readout, read-out: Human RSV-A (“Long” strain) EC50) is < 400 nM; in experiment [2] (A549 cells, strain 9320, MOI 0.5, 6 days post infection), < 400 nM.

As for `O=C1Nc2ccccc2C(c2ccccc2)=NC1Nc1ccc(-c2ccccc2)nn1` (stereo not shown) [Example 95], the EC50 in experiment [1] (setting [3]) was 400 to 800 nM; in experiment [2] (setting [4]), > 800 nM.

As to `CN(C)c1ccc(-c2nnc(NC3N=C(c4ccccc4)c4ccccc4NC3=O)o2)nc1` (stereo not shown) [Example 108], the EC50 in experiment [1] (setting [3]) and in experiment [2] (setting [4]) was > 800 nM in each case.

For `O=C1Nc2ccccc2C(c2ccccc2)=NC1Nc1nnc(-c2cccnc2N2CCOCC2)o1` (stereo not shown) [Example 120], the values for the EC50 in experiment [1] (setting [3]) and in experiment [2] (setting [4]) were < 400 nM and 400 to 800 nM, respectively.

`O=C1Nc2ccccc2C(c2ccccc2)=NC1Nc1nnc(-c2ccc(C(F)(F)F)cc2N2CCOCC2)o1` (stereo not shown) [Example 123]: the EC50 in experiment [1] (setting [3]) is < 400 nM; in experiment [2] (setting [4]), 400 to 800 nM.

Turning to `O=C1Nc2ccccc2C(c2ccccc2)=NC1Nc1nnc(-c2ccc(F)cc2N2CCOCC2)o1` (stereo not shown) [Example 127], the EC50 in experiment [1] (setting [3]) and in experiment [2] (setting [4]) was < 400 nM in each case.

Take `O=C1Nc2ccccc2C(c2ccccc2)=NC1Nc1nnc(-c2ccc(-n3cccn3)cc2N2CCOCC2)o1` (stereo not shown) [Example 129]: the EC50 in experiment [1] (setting [3]) and in experiment [2] (setting [4]) was < 400 nM throughout.

Take `N#Cc1ccc(-c2nnc(NC3N=C(c4ccccc4)c4ccccc4NC3=O)o2)c(N2CCOCC2)c1` (stereo not shown) [Example 131]: the EC50 in experiment [1] (setting [3]) and in experiment [2] (setting [4]) was < 400 nM throughout.

Take `O=C1Nc2ccccc2C(c2ccccc2)=N[C@@H]1Nc1nnc(-c2ncc(F)cc2N2CCOCC2)o1` [Example 136, (S)-3-((5-(5-fluoro-3-morpholinopyridin-2-yl)-1,3,4-oxadiazol-2-yl)amino)-5-phenyl-1,3-dihydro-2H-benzo[e][1,4]diazepin-2-one]: the EC50 in experiment [1] (setting [3]) and in experiment [2] (setting [4]) was < 400 nM throughout.

`Cc1ccc(-c2nnc(NC3N=C(c4ccccc4)c4ccccc4NC3=O)o2)c(N2CCOCC2)n1` (stereo not shown) [Example 144]: the EC50 in experiment [1] (setting [3]) and in experiment [2] (setting [4]) was < 400 nM in each case.

On to `N#Cc1ccc(-c2nnc(N[C@H]3N=C(c4ccccc4)c4ccccc4NC3=O)o2)c(N2CCOCC2)n1` [Example 153], for which the EC50 in experiment [1] (setting [3]) and in experiment [2] (setting [4]) was < 400 nM each time.

In the case of `Cn1c(N2CCOCC2)c(-c2nnc(N[C@H]3N=C(c4ccccc4)c4ccccc4NC3=O)o2)ccc1=O` [Example 155], the EC50 in experiment [1] (setting [3]) and in experiment [2] (setting [4]) was < 400 nM each time.

As to `Cc1nc(N2CCOCC2)c(-c2nnc(N[C@H]3N=C(c4ccccc4)c4ccccc4NC3=O)o2)cc1C#N` [Example 158], the EC50 in experiment [1] (setting [3]) and in experiment [2] (setting [4]) was < 400 nM throughout.

Consider `O=C1Nc2ccccc2C(c2ccccc2)=N[C@@H]1Nc1nnc(-c2ncc(Br)cc2N2CCOCC2)o1` [Example 168], for which the EC50 in experiment [1] (setting [3]) and in experiment [2] (setting [4]) was < 400 nM throughout.

`O=C1Nc2ccccc2C(c2ccccc2)=N[C@@H]1Nc1nnc(-c2ncc(C3CC3)cc2N2CCOCC2)o1` [Example 169]: the EC50 in experiment [1] (setting [3]) and in experiment [2] (setting [4]) was < 400 nM each time.

As for `N#Cc1cc(-c2nnc(N[C@H]3N=C(c4ccccc4)c4ccccc4NC3=O)o2)c(N2CCOCC2)nc1C1CC1` [Example 175], the EC50 was < 400 nM in experiment [1] (setting [3]) and 400 to 800 nM in experiment [2] (setting [4]).

Turning to `O=C1Nc2ccccc2C(c2ccccc2)=N[C@@H]1Nc1nnc(-c2oc3ccccc3c2N2CCOCC2)o1` [Example 179], the EC50 in experiment [1] (setting [3]) and in experiment [2] (setting [4]) was < 400 nM in each case.

`CN1CCN(c2ccccc2-c2nnc(NC3N=C(c4ccccc4)c4ccccc4NC3=O)o2)CC1` (stereo not shown) [Example 224]: the results for the concentration for a half-maximal effect (EC50) in experiment [1] (setting [3]) and in experiment [2] (setting [4]) were > 800 nM and < 400 nM, respectively.

For `O=C1Nc2ccccc2C(c2ccccc2)=N[C@@H]1Nc1nnc(-c2cccnc2N2CCOCC2)o1` [Example 242], the EC50 in experiment [1] (setting [3]) and in experiment [2] (setting [4]) was < 400 nM throughout.

For the compound `C[C@@H]1COCCN1c1ncccc1-c1nnc(NC2N=C(c3ccccc3)c3ccccc3NC2=O)o1` (stereo partly shown) [Example 245], the values for the 50% effective concentration (EC50) in experiment [1] (setting [3]) and in experiment [2] (setting [4]) were < 400 nM and 400 to 800 nM, respectively.

For the compound `O=C1Nc2ccccc2C(c2ccccc2)=N[C@@H]1Nc1nnc(-c2ncc(C(F)(F)F)cc2N2C3CCC2COC3)o1` [Example 250], the half-maximal effective concentration (EC50) in experiment [1] (setting [3]) and in experiment [2] (setting [4]) was < 400 nM throughout.

As for `O=C1Nc2ccccc2C(c2ccccc2)=N[C@@H]1Nc1nnc(-c2ncc(C(F)(F)F)cc2N2CC3CCC(C2)O3)o1` [Example 251], the EC50 in experiment [1] (setting [3]) and in experiment [2] (setting [4]) was < 400 nM in each case.

As to `Cc1ccc(-c2nnc(N[C@H]3N=C(c4ccccc4)c4ccccc4NC3=O)o2)c(N2CCOCC2)n1` [Example 252], the EC50 in experiment [1] (setting [3]) and in experiment [2] (setting [4]) was < 400 nM in each case.

Turning to `C[C@H]1CN(c2ncccc2-c2nnc(NC3N=C(c4ccccc4)c4ccccc4NC3=O)o2)CCO1` (stereo partly shown) [Example 263], the EC50 in experiment [1] (setting [3]) and in experiment [2] (setting [4]) was 400 to 800 nM each time.

As for `COC1CCN(c2cc(C(F)(F)F)cnc2-c2nnc(N[C@H]3N=C(c4ccccc4)c4ccccc4NC3=O)o2)CC1` [Example 268], the EC50 in experiment [1] (setting [3]) was > 800 nM; in experiment [2] (setting [4]), 400 to 800 nM.

With `O=C1Nc2ccccc2C(c2ccccc2)=N[C@@H]1Nc1nnc(-c2ncc(C(F)(F)F)cc2N2CCC(F)CC2)o1` [Example 269], the EC50 is > 800 nM in experiment [1] (setting [3]) and 400 to 800 nM in experiment [2] (setting [4]).

With `Cc1nc(-c2nnc(N[C@H]3N=C(c4ccccc4)c4ccccc4NC3=O)o2)c(N2CCOCC2)s1` [Example 272], the EC50 in experiment [1] (setting [3]) and in experiment [2] (setting [4]) was < 400 nM throughout.

With `O=C1Nc2ccccc2C(c2ccccc2)=N[C@@H]1Nc1nnc(-c2ccc(C(F)(F)F)nc2N2CC3CCC(C2)O3)o1` [Example 276], the results for the EC50 in experiment [1] (setting [3]) and in experiment [2] (setting [4]) were 400 to 800 nM and > 800 nM, respectively.

For `C[C@@H]1CN(c2cc(C(F)(F)F)cnc2-c2nnc(N[C@H]3N=C(c4ccccc4)c4ccccc4NC3=O)o2)CCO1` [Example 277], the EC50 in experiment [1] (setting [3]) and in experiment [2] (setting [4]) was < 400 nM in each case.

Regarding `C[C@H]1CN(c2cc(C(F)(F)F)cnc2-c2nnc(N[C@H]3N=C(c4ccccc4)c4ccccc4NC3=O)o2)CCO1` [Example 278], the EC50 in experiment [1] (setting [3]) and in experiment [2] (setting [4]) was < 400 nM in each case.

`COCCOc1cc(C#N)ccc1-c1nnc(N[C@H]2N=C(c3ccccc3)c3ccccc3NC2=O)o1` [Example 300]: the EC50 in experiment [1] (setting [3]) and in experiment [2] (setting [4]) was < 400 nM each time.

Turning to `N#CCCNc1cc(C(F)(F)F)cnc1-c1nnc(N[C@H]2N=C(c3ccccc3)c3ccccc3NC2=O)o1` [Example 303], the EC50 in experiment [1] (setting [3]) and in experiment [2] (setting [4]) was < 400 nM each time.

On to `N#Cc1cnc(-c2nnc(N[C@H]3N=C(c4ccccc4)c4ccccc4NC3=O)o2)c(N2CC3CCC(C2)O3)c1` [Example 304], for which the EC50 in experiment [1] (setting [3]) and in experiment [2] (setting [4]) was < 400 nM in each case.

With `O=C1Nc2ccccc2C(c2ccccc2)=N[C@@H]1Nc1nnc(-c2nc3ccccc3cc2N2CCOCC2)o1` [Example 322], the EC50 in experiment [1] (setting [3]) and in experiment [2] (setting [4]) was < 400 nM each time.

Take `O=C1Nc2ccccc2C(c2ccccc2)=N[C@@H]1Nc1nnc(-c2ncsc2N2CCOCC2)o1` [Example 336]: the EC50 in experiment [1] (setting [3]) and in experiment [2] (setting [4]) was < 400 nM throughout.

Regarding `O=C1Nc2ccccc2C(c2ccccc2)=N[C@@H]1Nc1nnc(-c2nc(C3CC3)sc2N2CCOCC2)o1` [Example 338], the EC50 in experiment [1] (setting [3]) and in experiment [2] (setting [4]) was < 400 nM in each case.

In the case of `O=C1Nc2ccccc2C(c2ccccc2)=N[C@@H]1Nc1nnc(-c2nc(C(F)(F)F)sc2N2CCOCC2)o1` [Example 339], the half-maximal effective concentration (EC50) in experiment [1] (setting [3]) and in experiment [2] (setting [4]) was < 400 nM in each case.

As to `O=C1Nc2ccccc2C(c2ccccc2)=N[C@@H]1Nc1nnc(-c2nc(-c3ccccc3)sc2N2CCOCC2)o1` [Example 340], the half-maximal effective concentration (EC50) in experiment [1] (setting [3]) and in experiment [2] (setting [4]) was < 400 nM in each case.

As to `O=C1Nc2ccccc2C(c2ccccc2)=N[C@@H]1Nc1nnc(-c2nc(-c3ccccn3)sc2N2CCOCC2)o1` [Example 341], the EC50 in experiment [1] (setting [3]) and in experiment [2] (setting [4]) was < 400 nM throughout.

Turning to `O=C1Nc2ccccc2C(c2ccccc2)=N[C@@H]1Nc1nnc(-c2csc(N3CCOCC3)n2)o1` [Example 351], the EC50 in experiment [1] (setting [3]) and in experiment [2] (setting [4]) was 400 to 800 nM in each case.

Consider `O=C1Nc2c(F)cccc2C(c2ccccc2)=N[C@@H]1Nc1nnc(-c2ccccc2N2CCOCC2)o1` [Example 355a], for which the EC50 in experiment [1] (setting [3]) and in experiment [2] (setting [4]) was < 400 nM in each case.

As a reminder, the EC50 is the midpoint of the concentration-response curve.
